Data published in US5137822A, “Transformed yeasts having steroid-hydroxylase activity and process for hydroxylation of steroids using the said transformed yeasts” (Director-General of Agency of Industrial Science & …, priority 1987, dated 1992).
Where two headings read alike, the source gives them in different places.

Tests used:
[1] = molecular target: T1, bovine adrenocortical cytochrome P-45017α (Bos taurus, UniProt P05185); settings: microsomes, 5 min, pH 7.4
T1 sequence (P05185 1-509): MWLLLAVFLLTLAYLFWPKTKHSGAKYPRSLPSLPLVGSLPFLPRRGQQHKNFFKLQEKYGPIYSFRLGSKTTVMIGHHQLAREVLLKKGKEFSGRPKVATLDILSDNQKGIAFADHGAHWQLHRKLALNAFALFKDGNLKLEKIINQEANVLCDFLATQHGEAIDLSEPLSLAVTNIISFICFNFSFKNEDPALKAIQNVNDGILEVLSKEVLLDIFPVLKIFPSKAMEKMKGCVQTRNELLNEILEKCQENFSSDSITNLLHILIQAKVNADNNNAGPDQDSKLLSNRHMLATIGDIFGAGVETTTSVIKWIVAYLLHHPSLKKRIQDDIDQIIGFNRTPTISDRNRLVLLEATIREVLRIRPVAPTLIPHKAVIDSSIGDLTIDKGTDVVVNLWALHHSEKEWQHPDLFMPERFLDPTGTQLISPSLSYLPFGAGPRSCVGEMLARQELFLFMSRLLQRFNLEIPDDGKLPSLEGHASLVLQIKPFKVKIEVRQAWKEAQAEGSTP
Experimental: After S. cerevisiae AH22(pAα1) was grown to a cell density of 2.0×10^7 cells/ml, the cells were harvested from 1.8 l of the culture broth and suspended in 50 ml of a buffer A (10 mM Tris-HCl (pH 7.5), 2M sorbitol, 0.1 mM DTT and 0.2 mM EDTA). After 20 mg of Zymolyase 100,000 was added to the suspension, the mixture was incubated at 30° C. for 1 hour. The resulting spheroplasts were harvested by centrifugation (5,000 x g for 10 minutes). They were suspended in 100 ml of buffer A and centrifuged. By repeating the centrifugation, the spheroplasts were washed. They were resuspended in 30 ml of a buffer solution (10 mM Tris-HCl (pH 7.5), 0.65M sorbitol and 0.1 mM DTT) and subjected to ultra sonication at 50W for 5 minutes. The mixture was centrifuged at 10,000 x g for 20 minutes, and the supernatant was again centrifuged at 125,000 x g for 70 minutes. The precipitates were suspended in 2.0 ml of 0.1M potassium phosphate buffer (pH 7.4).
A mixture of 3.6 ml of a 100 mM potassium phosphate buffer (pH 7.4) and 100 μl of a 20 mM NADPH aqueous solution was preincubated at 37° C. for 5 minutes. […] Each 1.0 ml of the mixture was sampled at 0, 2 and 10 minutes and centrifugated. After 2.0 ml each of dichloromethane was added, the sample mixtures were vigorously agitated and centrifugated. The dichloromethane layer (1.0 ml) was evaporated to dryness and the residue was treated in the same manner as in Example 6.

[2] = molecular target: T1, bovine adrenocortical cytochrome P-45017α; settings: s. cerevisiae ah22(paα1) culture, 10 µM
Experimental: S. cerevisiae AH22(pAα1) and AH22(pAAH5) were separately grown to each 7×10^6 cells/ml in an SD-synthetic-medium (2.0% glucose, 0.67% yeast nitrogen base without amino acids, and 20 μg/ml histidine). To 5.0 ml each of the medium was added 50 μl of 1 mM progesterone in ethanol solution containing 10 μCi of [^3 H]-progesterone (or 50 μl of 1 mM pregnenolone in ethanol solution containing 10 μCi of [3H]-pregnenolone) and the mixture was cultured while shaking. Each 1.0 ml of the medium was sampled at 0, 2, 5 and 23 hours and centrifugated. After 2.0 ml of dichloromethane was added to 0.8 ml of the supernatant, the mixture was vigorously agitated and centrifugated. The dichloromethane layer (1.0 ml) was evaporated to dryness and the residue was dissolved in 20 μl of ethanol/ethyl acetate (1:1 by volume). Ten μl of the solution was applied to TLC. The TLC was developed with chloroform containing 25% ethyl acetate at room temperature for 50 minutes and radioautographed. The silica gel of the spot on the film was scraped out from the plate and the radio activity of the gel was measured with a liquid scintillation counter.

[3] = molecular target: T1, bovine adrenocortical cytochrome P-45017α; assay: C17-20-lyase activity of P-45017α-producing yeasts against 17-hydroxyprogesterone; format: cell-based; design: made in house; host or cells: Saccharomyces cerevisiae AH22(pAα1), microsomal fraction

**Q.** For `CC(=O)[C@H]1CC[C@H]2[C@@H]3CCC4=CC(=O)CC[C@]4(C)[C@H]3CC[C@]12C` [progesterone], which “added progesterone converted to 17-hydroxyprogesterone” value (from here on “added progesterone converted”) ([1]; 2 µM) is on record?
**A.** Its value is 88%.

**Q.** What about the “added progesterone converted” value ([1]; 10 µM) of the same compound?
**A.** Its value is 49%.

**Q.** And the “added progesterone converted” value ([1]; 50 µM)?
**A.** Its value is 17%.

**Q.** What about the “conversion of progesterone to 17-hydroxyprogesterone” value ([2]; 5 h) of the same compound?
**A.** Its value is 87%.

**Q.** What about the “conversion of progesterone to 17-hydroxyprogesterone” value ([2]; 23 h) of the same compound?
**A.** The value was 97%.

**Q.** Which “C17-20-lyase activity against 17-hydroxyprogesterone” value [3] does the source give for `CC(=O)[C@@]1(O)CC[C@H]2[C@@H]3CCC4=CC(=O)CC[C@]4(C)[C@H]3CC[C@@]21C` [17-hydroxyprogesterone] here?
**A.** The value was “almost no C17-20 -lyase activity”.

**Q.** With `CC(=O)[C@H]1CC[C@H]2[C@@H]3CC=C4C[C@@H](O)CC[C@]4(C)[C@H]3CC[C@]12C` [pregnenolone] as the compound, how does the “conversion of pregnenolone to 17-hydroxypregnenolone” value ([2]; 2 h) read?
**A.** The value was 28%.
